These are literature values, as cited in patent US8410096B2, “Antitumor agent, kit and method of treating cancer” (Shizuoka Prefecture, priority 2008, dated 2013).

The subject of this data set is 5-FU decomposition. The conditions noted are these: compared with uracil.

In the case of `Oc1cc(O)c(Cl)cn1` [gimeracil, 2,4-dihydroxy-5-chloropyridine], the “5-FU decomposition inhibitory action relative to uracil” value is given as “about 200 times”.
